{"source": "patent US20030064414A1", "about": "“Rapid assessment of coagulation activity in whole blood” (priority 2001, published 2003)", "tested_on": "whole blood", "assay": "Recalcified clotting time of citrated whole blood, aprotinin and lipidated tissue factor added at assay initiation", "assay_type": "biochemical", "source_text": "In the previous examples, blood was always collected in the presence of a calcium-chelating anticoagulant (citrate) and contact pathway inhibitor (aprotinin or corn trypsin inhibitor). It would be desirable for certain applications, for example hospital emergency department use, if blood could be […] into a standard commercially available and FDA-approved sodium citrate tube, such as that supplied by Becton Dickinson, Franklin Lakes, N.J. and Greiner America, Monroe, N.C. and the contact pathway inhibitor added concomitantly during assay initiation with lipidated tissue factor and divalent calcium. In this example, blood from a single donor was collected into sterile evacuated-tubes containing 3.2% buffered sodium citrate (Greiner). In FIG. 7A, clotting was initiated with calcium in the presence or absence of 15,000 KIU/ml aprotinin (Centerchem Inc., Norwalk, Conn.). […] In contrast, blood recalcified in the absence of aprotinin clotted in 250 sec. Thus, the contact pathway of blood coagulation has been abolished. FIG. 7B depicts a dose-response to Lovenox® when citrated blood was recalcified in the presence of 15,000 U/ml aprotinin and 10 units of lipidated tissue factor.\n(>1500 sec) to 180 sec. The correlation (R^2) of clotting time to Enoxaparin® dose was 0.9915. The slope was 550 and intercept 210 sec. […]"}
{"substance": "aprotinin", "values": [{"measurement": "recalcified clotting time", "setting": "citrated blood, calcium and 15,000 KIU/ml aprotinin, no tissue factor, 1500 sec maximal clotting time, FIG. 7A", "result": "> 1500", "unit": "s"}]}
{"substance": "lipidated tissue factor: lipidated recombinant tissue factor with synthetic phospholipids, procoagulant that initiates the extrinsic pathway", "values": [{"measurement": "recalcified clotting time", "setting": "citrated blood recalcified with 15,000 U/ml aprotinin and 10 units of lipidated tissue factor", "result": 180, "unit": "s"}]}
